Experimental data published in US20100267561A1, “HERBICIDAL PYRIDAZINONE DERIVATIVES” (priority 2007, published 2010).
Where two headings read alike, the source gives them in different places.

Tests used:
Experiment in all cases: Test B pre-/postemergence plant response
Assay type in all cases: in vivo
[1] = system: surinam grass (Brachiaria decumbens); settings: Urochloa decumbens, read-out: Plant response rating, Surinam Grass; for pest or weed control at 31 g/ha: 31 g ai/ha, 100 complete control; for pest or weed control at 62 g/ha: 62 g ai/ha; for pest or weed control at 62 g/ha / pest or weed control at 125 g/ha / pest or weed control at 250 g/ha: scale 0 to 100; for pest or weed control at 125 g/ha: 125 g ai/ha; for pest or weed control at 250 g/ha: 250 g ai/ha
Method in brief: (§1)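 Seeds were sown and sprayed preemergence, while plants at 2 to 18 cm (1- to 4-leaf stage) got postemergence sprays. Compounds were formulated in a non-phytotoxic solvent mixture with surfactant. After 13 to 15 days in a greenhouse, injury was rated visually against untreated controls, 0 (no effect) to 100 (complete control).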

[2] = system: morningglory (Ipomoea coccinea); settings: Ipomoea, read-out: Plant response rating, Morningglory; for pest or weed control at 62 g/ha: 62 g ai/ha; for pest or weed control at 62 g/ha / pest or weed control at 125 g/ha / pest or weed control at 250 g/ha: scale 0 to 100; for pest or weed control at 125 g/ha: 125 g ai/ha; for pest or weed control at 250 g/ha: 250 g ai/ha
Method in brief: as §1

[3] = system: goosegrass (Eleusine indica); settings: Eleusine indica, read-out: Plant response rating, Goosegrass; for pest or weed control at 31 g/ha: 31 g ai/ha, 100 complete control; for pest or weed control at 62 g/ha: 62 g ai/ha; for pest or weed control at 62 g/ha / pest or weed control at 125 g/ha / pest or weed control at 250 g/ha: scale 0 to 100; for pest or weed control at 125 g/ha: 125 g ai/ha; for pest or weed control at 250 g/ha: 250 g ai/ha
Method in brief: as §1

[4] = system: Italian ryegrass (Lolium multiflorum); settings: Lolium multiflorum, read-out: Plant response rating, Ryegrass, Italian; for pest or weed control at 31 g/ha: 31 g ai/ha, 100 complete control; for pest or weed control at 62 g/ha: 62 g ai/ha; for pest or weed control at 62 g/ha / pest or weed control at 125 g/ha / pest or weed control at 250 g/ha: scale 0 to 100; for pest or weed control at 125 g/ha: 125 g ai/ha; for pest or weed control at 250 g/ha: 250 g ai/ha
Method in brief: as §1

[5] = system: soybean (Glycine max); settings: Glycine max, read-out: Plant response rating, Soybean; for plant injury at 31 g/ha: 31 g ai/ha, 100 complete control; for plant injury at 250 g/ha: 250 g ai/ha
Method in brief: as §1

[6] = system: bermudagrass (Cynodon dactylon); settings: for pest or weed control at 31 g/ha: 31 g ai/ha, 100 complete control; for pest or weed control at 62 g/ha: 62 g ai/ha; for pest or weed control at 125 g/ha: 125 g ai/ha
Method in brief: as §1

[7] = system: wheat (Triticum aestivum); settings: Triticum aestivum, read-out: Plant response rating, Wheat; for plant injury at 31 g/ha: 31 g ai/ha, 100 complete control; for plant injury at 62 g/ha: 62 g ai/ha
Method in brief: as §1

[8] = post-emergence, Postemergence, scale 0 to 100, 0 no effect
[9] = pre-emergence, Preemergence, 0 to 100 scale, 0 no effect
[10] = post-emergence, Postemergence, 125 g ai/ha, scale 0 to 100
[11] = post-emergence, Postemergence, scale 0 to 100
[12] = pre-emergence, Preemergence, scale 0 to 100
[13] = Cynodon dactylon, post-emergence, Postemergence, scale 0 to 100, read-out: Plant response rating, Bermudagrass
[14] = Cynodon dactylon, pre-emergence, Preemergence, scale 0 to 100, read-out: Plant response rating, Bermudagrass

Cc1cc(-c2ccc(C(F)(F)F)cc2)nn1-c1c(O)cnn(C)c1=O [Compound 1, 5-hydroxy-2-methyl-4-[5-methyl-3-[4-(trifluoromethyl)phenyl]-1H-pyrazol-1-yl]-3(2H)-pyridazinone]
35%: plant injury at 31 g/ha [7, 9]
25%: plant injury at 62 g/ha ([5]; post-emergence, Postemergence, 62 g ai/ha, scale 0 to 100)
100: Bermudagrass plant response rating ([6]; 250 g ai/ha, preemergence, 0-100 scale)
85%: pest or weed control at 250 g/ha ([3]; post-emergence, Postemergence)
0%: pest or weed control at 62 g/ha ([2]; post-emergence, Postemergence) | pest or weed control at 125 g/ha ([2]; post-emergence, Postemergence) | pest or weed control at 250 g/ha ([2]; post-emergence, Postemergence) | pest or weed control at 31 g/ha ([2]; pre-emergence, Preemergence, 31 g ai/ha, 0 to 100 scale, 0 no effect, 100 complete control) | pest or weed control at 62 g/ha ([2]; pre-emergence, Preemergence) | pest or weed control at 125 g/ha ([2]; pre-emergence, Preemergence) | pest or weed control at 250 g/ha ([2]; pre-emergence, Preemergence) | plant injury at 31 g/ha [5, 8] | plant injury at 31 g/ha [5, 9] | plant injury at 250 g/ha [5, 12]
95%: pest or weed control at 31 g/ha [4, 8] | plant injury at 250 g/ha ([7]; post-emergence, Postemergence, 250 g ai/ha, scale 0 to 100)
80%: pest or weed control at 31 g/ha [4, 9]
100%: pest or weed control at 31 g/ha [1, 8] | pest or weed control at 62 g/ha ([1]; post-emergence, Postemergence) | pest or weed control at 125 g/ha ([1]; post-emergence, Postemergence) | pest or weed control at 250 g/ha ([1]; post-emergence, Postemergence) | pest or weed control at 31 g/ha [1, 9] | pest or weed control at 62 g/ha ([1]; pre-emergence, Preemergence) | pest or weed control at 125 g/ha ([1]; pre-emergence, Preemergence) | pest or weed control at 250 g/ha ([1]; pre-emergence, Preemergence) | pest or weed control at 125 g/ha ([3]; pre-emergence, Preemergence) | pest or weed control at 250 g/ha ([3]; pre-emergence, Preemergence) | pest or weed control at 62 g/ha ([4]; post-emergence, Postemergence) | pest or weed control at 125 g/ha ([4]; post-emergence, Postemergence) | pest or weed control at 250 g/ha ([4]; post-emergence, Postemergence) | pest or weed control at 62 g/ha ([4]; pre-emergence, Preemergence) | pest or weed control at 125 g/ha ([4]; pre-emergence, Preemergence) | pest or weed control at 250 g/ha ([4]; pre-emergence, Preemergence) | pest or weed control at 31 g/ha ([6]; Cynodon dactylon, post-emergence, Postemergence, scale 0 to 100, 0 no effect, read-out: Plant response rating, Bermudagrass) | pest or weed control at 62 g/ha [6, 13] | pest or weed control at 125 g/ha [6, 13] | pest or weed control at 250 g/ha ([6]; Cynodon dactylon, post-emergence, Postemergence, 250 g ai/ha, scale 0 to 100, read-out: Plant response rating, Bermudagrass) | pest or weed control at 31 g/ha ([6]; Cynodon dactylon, pre-emergence, Preemergence, 0 to 100 scale, 0 no effect, read-out: Plant response rating, Bermudagrass) | pest or weed control at 62 g/ha [6, 14] | pest or weed control at 125 g/ha [6, 14]
30%: pest or weed control at 31 g/ha [3, 8] | pest or weed control at 62 g/ha ([3]; post-emergence, Postemergence)
60%: plant injury at 250 g/ha [5, 11]
45%: plant injury at 31 g/ha [7, 8] | plant injury at 62 g/ha [7, 12]
50%: pest or weed control at 125 g/ha ([3]; post-emergence, Postemergence) | pest or weed control at 31 g/ha [3, 9] | pest or weed control at 62 g/ha ([3]; pre-emergence, Preemergence) | plant injury at 125 g/ha [5, 10]
90%: plant injury at 62 g/ha [7, 11] | plant injury at 125 g/ha [7, 10]
